Measurements reported in PubChem BioAssay AID330 (DTP/NCI, 2004).
“And” between values parts separate entries of the source, which are not always exact repeats. Equal entries are not always repeated. Inconclusive results and toxic doses are left out.

System: P388 leukemia ip, CD2F1 mice, survival T/C
Assay: NCI In Vivo Anticancer Drug Screen. Data for tumor model P388 Leukemia (intraperitoneal) in CD2F1 (CDF1) mice
Details: endpoint: median survival time, higher = longer survival
Outline: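 Mice carrying the transplanted tumor received test compound or vehicle. Survival was recorded in each group, and the value is the treated-group measurement divided by that of the vehicle-treated control group.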

[1] = dose: 50.0 mg/kg/injection, schedule: Q01DX009 (ip), vehicle: saline with Tween-80
[2] = dose: 100.0 mg/kg/injection, schedule: Q01DX009 (ip), vehicle: saline with Tween-80
[3] = dose: 200.0 mg/kg/injection, schedule: Q01DX009 (ip), vehicle: saline with Tween-80
[4] = dose: 60.0 mg/kg/injection, schedule: Q01DX005 (ip), vehicle: saline with Tween-80
[5] = dose: 120.0 mg/kg/injection, schedule: Q01DX005 (ip), vehicle: saline with Tween-80
[6] = dose: 240.0 mg/kg/injection, schedule: Q01DX005 (ip), vehicle: saline with Tween-80
[7] = dose: 60.0 mg/kg/injection, schedule: Q01DX005 (ip), vehicle: Klucel (hydroxypropylcellulose) (HPC)
[8] = dose: 240.0 mg/kg/injection, schedule: Q01DX005 (ip), vehicle: Klucel (hydroxypropylcellulose) (HPC)
[9] = dose: 50.0 mg/kg/injection, schedule: Q01DX005 (ip), vehicle: Klucel (hydroxypropylcellulose) (HPC)
[10] = dose: 100.0 mg/kg/injection, schedule: Q01DX005 (ip), vehicle: Klucel (hydroxypropylcellulose) (HPC)
[11] = dose: 200.0 mg/kg/injection, schedule: Q01DX005 (ip), vehicle: Klucel (hydroxypropylcellulose) (HPC)
[12] = dose: 25.0 mg/kg/injection, schedule: Q01DX005 (ip), vehicle: Klucel (hydroxypropylcellulose) (HPC)
[13] = dose: 100.0 mg/kg/injection, schedule: Q01DX001 (ip), vehicle: saline with Tween-80
[14] = dose: 200.0 mg/kg/injection, schedule: Q01DX001 (ip), vehicle: saline with Tween-80
[15] = dose: 400.0 mg/kg/injection, schedule: Q01DX001 (ip), vehicle: saline with Tween-80
[16] = dose: 12.5 mg/kg/injection, schedule: Q01DX005 (ip), vehicle: Klucel (hydroxypropylcellulose) (HPC)

In the case of `CCCCC(CC)COC1CCS(=O)(=O)C1` (stereo unspecified), the T/C [1] is reported as 100 % of control, the T/C [2] is reported as 101 % of control and the T/C [3] is reported as 95 % of control.
In the case of `Cc1cc(NS(=O)(=O)c2ccc(NCc3c4ccccc4nc4cc(Cl)ccc34)cc2)no1`, the T/C [4] is reported as 94 % of control, the T/C [5] is reported as 94 % of control and the T/C [6] is reported as 94 % of control.
For `O=C(Nc1ccc(C(=O)c2ccccc2)cc1)Nc1ccc(Cl)c(Cl)c1`, the T/C (dose: 15.0 mg/kg/injection, schedule: Q01DX005 (ip), vehicle: Klucel (hydroxypropylcellulose) (HPC)) was 93 % of control, the T/C (dose: 30.0 mg/kg/injection, schedule: Q01DX005 (ip), vehicle: Klucel (hydroxypropylcellulose) (HPC)) was 96 % of control and the T/C [7] was 89 % of control. The T/C [8] was 86 % of control.
For `COc1cc2c(c3c1c(=O)c1cccnc1n3C)C=CC(C)(C)O2`, the T/C [9] was 101 % of control, the T/C [10] was 101 % of control and the T/C [11] was 91 % of control.
`CC1(C)OCC2OCOC(C3CC(=O)NC(=O)C3)C2O1` (stereo unspecified) was tested, and the T/C (dose: 100.0 mg/kg/injection, schedule: Q04DX002 (ip), vehicle: suspension in saline) was 102 % of control, the T/C (dose: 200.0 mg/kg/injection, schedule: Q04DX002 (ip), vehicle: suspension in saline) was 100 % of control and the T/C (dose: 400.0 mg/kg/injection, schedule: Q04DX002 (ip), vehicle: suspension in saline) was 102 % of control.
`CC(C)(C)c1cc2c(c(C(C)(C)C)c1)OP(F)(c1ccccc1)(c1ccccc1)N2` was tested, and the T/C [1] was 89 % of control, the T/C [2] was 95 % of control and the T/C [3] was 98 % of control.
With `CC1=N/C(=C\c2ccccc2)C(=O)N1c1ccccc1` the T/C [10] was 98 % of control, the T/C [11] was 104 % of control and the T/C (dose: 400.0 mg/kg/injection, schedule: Q01DX005 (ip), vehicle: Klucel (hydroxypropylcellulose) (HPC)) was 105 % of control.
`O=C(Oc1ccccc1)c1ccc([N+](=O)[O-])cc1` was tested, and the T/C [12] was 100 % of control, the T/C [9] was 105 % of control and the T/C [10] was 101 % of control. For the same molecule, the T/C [11] was 104 % of control.
For `O=C1CCC(C(=O)N2CCCC2)N1` (stereo unspecified), the T/C (dose: 50.0 mg/kg/injection, schedule: Q01DX005 (ip), vehicle: saline) was 96 % of control and 100 % of control, the T/C (dose: 100.0 mg/kg/injection, schedule: Q01DX005 (ip), vehicle: saline) was 104 % of control and 98 % of control and the T/C (dose: 200.0 mg/kg/injection, schedule: Q01DX005 (ip), vehicle: saline) was 104 % of control and 97 % of control.
For `O=CC(Br)C(Br)c1ccccc1` (stereo unspecified), the T/C (dose: 6.25 mg/kg/injection, schedule: Q01DX009 (ip), vehicle: saline with Tween-80) was 122 % of control, the T/C (dose: 6.25 mg/kg/injection, schedule: Q04DX003 (ip), vehicle: saline with Tween-80) was 109 % of control and the T/C (dose: 12.5 mg/kg/injection, schedule: Q01DX009 (ip), vehicle: saline with Tween-80) was 109 % of control. For the same molecule, the T/C (dose: 12.5 mg/kg/injection, schedule: Q04DX003 (ip), vehicle: saline with Tween-80) was 109 % of control, the T/C (dose: 25.0 mg/kg/injection, schedule: Q01DX009 (ip), vehicle: saline with Tween-80) was 100 % of control and the T/C (dose: 25.0 mg/kg/injection, schedule: Q04DX003 (ip), vehicle: saline with Tween-80) was 113 % of control.
With `c1cc(Oc2ccc3ccncc3c2)c2ccncc2c1` the T/C [13] was 100 % of control, the T/C [14] was 100 % of control and the T/C [15] was 95 % of control.
For `CCCC1(c2ccccc2)CCCC(C#N)C1=N` (stereo unspecified), the T/C (dose: 100.0 mg/kg/injection, schedule: Q04DX003 (ip), vehicle: Klucel (hydroxypropylcellulose) (HPC)) was 97 % of control, the T/C (dose: 200.0 mg/kg/injection, schedule: Q04DX003 (ip), vehicle: Klucel (hydroxypropylcellulose) (HPC)) was 98 % of control and the T/C (dose: 400.0 mg/kg/injection, schedule: Q04DX003 (ip), vehicle: Klucel (hydroxypropylcellulose) (HPC)) was 92 % of control.
`COc1ccc2c(=O)cc(-c3ccc4ccccc4n3)oc2c1OC` was tested, and the T/C [9] was 98 % of control, the T/C [10] was 95 % of control and the T/C [11] was 90 % of control.
For `CCN(CC)Cc1c[nH]c2ccccc12`, the T/C (dose: 12.5 mg/kg/injection, schedule: Q01DX009 (ip), vehicle: Klucel (hydroxypropylcellulose) (HPC)) was 102 % of control, the T/C (dose: 25.0 mg/kg/injection, schedule: Q01DX009 (ip), vehicle: Klucel (hydroxypropylcellulose) (HPC)) was 103 % of control and the T/C (dose: 50.0 mg/kg/injection, schedule: Q01DX009 (ip), vehicle: Klucel (hydroxypropylcellulose) (HPC)) was 97 % of control.
In the case of `CS(=O)(=O)OC1C(O)C(n2cnc3c(N)ncnc32)C(O)C(OS(C)(=O)=O)C1OS(C)(=O)=O` (stereo unspecified), the T/C [4] is reported as 98 % of control, the T/C [5] is reported as 95 % of control and the T/C [6] is reported as 96 % of control.
For `O=[N+]([O-])O.O=[N+]([O-])O.[NH-]C1CCCC1[NH-].[Pt+2]` (stereo unspecified), the T/C (dose: 6.25 mg/kg/injection, schedule: Q04DX002 (ip), vehicle: saline) was 180 % of control, the T/C (dose: 12.5 mg/kg/injection, schedule: Q04DX002 (ip), vehicle: saline) was 180 % of control and the T/C (dose: 12.5 mg/kg/injection, schedule: Q04DX002 (ip), vehicle: suspension in saline) was 184 % of control. The T/C (dose: 25.0 mg/kg/injection, schedule: Q04DX002 (ip), vehicle: saline) was 197 % of control and the T/C (dose: 25.0 mg/kg/injection, schedule: Q04DX002 (ip), vehicle: suspension in saline) was 202 % of control.
`CN(C)C(=S)N/N=C/c1ccccn1` was tested, and the T/C (dose: 6.25 mg/kg/injection, schedule: Q01DX005 (ip), vehicle: Klucel (hydroxypropylcellulose) (HPC)) was 115 % of control and the T/C [16] was 115 % of control.
For `COc1cc(/C=C/C(=O)c2ccc(Nc3ccnc4cc(Cl)ccc34)cc2)cc(OC)c1OC`, the T/C [13] was 102 % of control, the T/C [14] was 97 % of control and the T/C [15] was 93 % of control.
In the case of `CCCCN(CCCC)CCNc1ccc(C)c2sc3cc(Cl)ccc3c(=O)c12`, the T/C [16] is reported as 95 % of control, the T/C [12] is reported as 101 % of control and the T/C [9] is reported as 99 % of control and 101 % of control. For the same molecule, the T/C [10] was 96 % of control.
`O=c1cccc(C2CC(CO)C3CCCCN3C2)[nH]1` (stereo unspecified) was tested, and the T/C (dose: 1.1 mg/kg/injection, schedule: Q01DX009 (ip), vehicle: distilled water + Tween-80 + alcohol) was 86 % of control, the T/C (dose: 1.5 mg/kg/injection, schedule: Q01DX009 (ip), vehicle: acid diluted with CMC) was 96 % of control and the T/C (dose: 2.2 mg/kg/injection, schedule: Q01DX009 (ip), vehicle: acid diluted with CMC) was 99 % of control. For the same molecule, the T/C (dose: 2.2 mg/kg/injection, schedule: Q01DX009 (ip), vehicle: distilled water + Tween-80 + alcohol) was 93 % of control, the T/C (dose: 4.5 mg/kg/injection, schedule: Q01DX009 (ip), vehicle: acid diluted with CMC) was 96 % of control and the T/C (dose: 4.5 mg/kg/injection, schedule: Q01DX009 (ip), vehicle: distilled water + Tween-80 + alcohol) was 93 % of control. For the same molecule, the T/C (dose: 9.0 mg/kg/injection, schedule: Q01DX009 (ip), vehicle: acid diluted with CMC) was 99 % of control and 93 % of control, the T/C (dose: 9.0 mg/kg/injection, schedule: Q01DX009 (ip), vehicle: distilled water + Tween-80 + alcohol) was 103 % of control and the T/C (dose: 18.0 mg/kg/injection, schedule: Q01DX009 (ip), vehicle: acid diluted with CMC) was 94 % of control.
In the case of `COC(=O)/C=c1\sc2n(c1=O)CCCCN=2`, the T/C [7] is reported as 86 % of control, the T/C (dose: 120.0 mg/kg/injection, schedule: Q01DX005 (ip), vehicle: Klucel (hydroxypropylcellulose) (HPC)) is reported as 93 % of control and the T/C [8] is reported as 100 % of control.
For `O=C(c1ccccc1)N1CC1`, the T/C (dose: 50.0 mg/kg/injection, schedule: Q01DX009 (ip), vehicle: saline + alcohol) was 94 % of control, the T/C (dose: 100.0 mg/kg/injection, schedule: Q01DX009 (ip), vehicle: saline + alcohol) was 97 % of control and the T/C (dose: 200.0 mg/kg/injection, schedule: Q01DX009 (ip), vehicle: saline + alcohol) was 100 % of control. For the same molecule, the T/C (dose: 400.0 mg/kg/injection, schedule: Q01DX009 (ip), vehicle: saline + alcohol) was 116 % of control.
In the case of `Cc1ccc(S(=O)(=O)N/N=C/c2c(Br)nc3n2CCS3)cc1`, the T/C (dose: 100.0 mg/kg/injection, schedule: Q01DX001 (ip), vehicle: Klucel (hydroxypropylcellulose) (HPC)) is reported as 94 % of control, the T/C (dose: 200.0 mg/kg/injection, schedule: Q01DX001 (ip), vehicle: Klucel (hydroxypropylcellulose) (HPC)) is reported as 89 % of control and the T/C (dose: 400.0 mg/kg/injection, schedule: Q01DX001 (ip), vehicle: Klucel (hydroxypropylcellulose) (HPC)) is reported as 92 % of control.
`O=C(NC(Cc1ccc(O)cc1)C(=O)O)c1ccccc1` (stereo unspecified) was tested, and the T/C (dose: 50.0 mg/kg/injection, schedule: Q01DX005 (ip), vehicle: saline with Tween-80) was 99 % of control, the T/C (dose: 100.0 mg/kg/injection, schedule: Q01DX005 (ip), vehicle: saline with Tween-80) was 100 % of control and the T/C (dose: 200.0 mg/kg/injection, schedule: Q01DX005 (ip), vehicle: saline with Tween-80) was 88 % of control.
